Results published in patent US20080226596A1, “Therapeutic compositions and methods useful in treating hepatitis” (priority 2006, published 2008).
Values joined by “and” are separate entries in the source; they are usually repeats but may differ in a detail not shown here. Equal values may be shown once.

Experiments:
U937 cells = assay: U937 differentiation, NBT reduction; assay type: cell-based, human; settings: day 6; sodium stibogluconate 400 μg/ml, GM-CSF 25 ng/ml
Protocol: (§1) Differentiation of AML cell lines was assessed by their ability to produce superoxide as measured by reduction of NBT to formazan and by analysis of expression of CD11b surface marker by flow cytometry. For NBT reduction, each cell suspension was mixed with an equal volume of solution containing 1 mg/ml of NBT (Sigma) and 2.5 µg/ml of TPA for 30 minutes at 37° C. After incubation, cells containing the purple formazan deposits and cells devoid of NBT-reducing activity (white cells) in each sample were determined by counting 200 cells under microscope. Data is expressed as a percentage based on the following ratio: purple cells/purple+white cells. For analysis of cell surface antigens, cells were exposed to phycoerythrin (PE)-conjugated murine anti-human CD11b (DAKO Corp., Carpinteria, Calif.). Analysis of fluorescence was performed on a FACScan flow cytometer (Beckton Dickinson, Mountain View, Calif.).

HL-60 cells = assay: HL-60 differentiation, NBT reduction; assay type: cell-based, human; settings: day 6; sodium stibogluconate 400 μg/ml, GM-CSF 25 ng/ml
Protocol: as §1

NB4 cells [1] = assay: NB4 cell cycle analysis; assay type: cell-based, human; settings: 3 days; sodium stibogluconate 250 μg/ml, ATRA 1 μM
Protocol: The cell cycle was analyzed by flow cytometry after 3 days of culture of NB4 cells in the absence or presence of sodium stibogluconate (250 µg/ml) or ATRA (1 μM). Briefly, the cells were fixed in cold ethanol and incubated for 30 minutes at 4° C. in the dark with a solution of 50 […], 1 mg/ml RNase and 0.1% NP-40. Analysis was performed immediately after staining using the CELLFIT program (Becton Dickinson, Mountain View, Calif.).

SHP-1 [2] = target: T1, SHP-1 (Mus musculus, UniProt P29351); assay: Reversibility of SHP-1 inhibition (washing of bead-bound GST/SHP-1); assay type: biochemical; settings: pre-incubated 4° C. 30 minutes, washed 3 times
T1 construct: made in house
T1 sequence (P29351 whole entry): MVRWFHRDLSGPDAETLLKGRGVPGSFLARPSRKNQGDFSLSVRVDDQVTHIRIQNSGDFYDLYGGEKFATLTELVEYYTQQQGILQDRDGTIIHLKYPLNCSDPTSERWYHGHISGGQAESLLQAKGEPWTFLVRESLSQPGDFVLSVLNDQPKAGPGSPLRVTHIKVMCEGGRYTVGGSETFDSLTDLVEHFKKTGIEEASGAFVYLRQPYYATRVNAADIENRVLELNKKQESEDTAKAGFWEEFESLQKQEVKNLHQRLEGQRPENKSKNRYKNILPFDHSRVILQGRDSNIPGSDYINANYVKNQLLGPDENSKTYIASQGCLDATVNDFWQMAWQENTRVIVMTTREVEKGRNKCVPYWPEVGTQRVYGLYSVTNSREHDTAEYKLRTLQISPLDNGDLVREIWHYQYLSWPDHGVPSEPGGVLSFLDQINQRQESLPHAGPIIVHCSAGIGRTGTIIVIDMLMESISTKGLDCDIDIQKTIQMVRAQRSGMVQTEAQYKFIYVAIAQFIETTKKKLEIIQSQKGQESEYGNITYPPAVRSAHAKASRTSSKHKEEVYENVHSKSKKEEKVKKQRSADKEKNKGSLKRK
Excerpt: The beads were then either subjected to in vitro PTPase assays or washed 3 times in Tris buffer then subjected to in vitro PTPase assays.

PRL-3 = target: T2, PRL-3 (Homo sapiens, UniProt O75365); assay: In vitro PTPase assay, recombinant PRL-3, DiFMUP substrate; assay type: biochemical; settings: comparable conditions
T2 construct: GST (N); made in house; host or cells: DHSa (DH5a) bacteria
T2 sequence (O75365 whole entry): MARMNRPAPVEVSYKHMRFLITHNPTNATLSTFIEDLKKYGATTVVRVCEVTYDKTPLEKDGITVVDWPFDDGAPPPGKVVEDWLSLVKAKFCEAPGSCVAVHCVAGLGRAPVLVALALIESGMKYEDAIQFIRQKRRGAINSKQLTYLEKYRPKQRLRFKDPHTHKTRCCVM
Protocol: (§2) In vitro PTPase assays were used to determine the effects of compounds on recombinant PTPases, following established procedures using a synthetic phosphotyrosine peptide or DiFMUP as the substrate (Pathak et al., J. Imumol. 167, 3391 (2001)). Briefly, individual PTPases (0.1 µg/reaction) in 50 μL of PTPase buffer (50 mM Tris, pH 7.4) were incubated at 22° C. for 10 minutes or as indicated in the absence or presence of inhibitory compounds. Substrates (0.2 mM phosphotyrosine peptide) were then added and allowed to react at 22° C. for 18 hrs. PTPase activity of individual reactions was measured by adding 100 µL of malachite green solution (UBI) and then quantifying the amounts of free phosphate cleaved by the PTPase from the peptide substrate by spectrometry (OD660 nm). PTPase assays using DiFMUP as a substrate were conducted following a previously described procedure (Matter, et al., Biochem. Biophys. Res. Comm. 283, 1061 (2001)). Relative PTPase activities were calculated based on the formula: (PTPase activity in the presence of an inhibitory compound/PTPase activity in the absence of the compound)× 100%. To assess the reversibility of PTPase inhibition, GST fusion proteins of the PTPases bound on glutathione beads (Pharmacia) were pre-incubated with cold Tris buffer (50 mM Tris, pH 7.0) or Tris buffer containing the inhibitor at 4° C. for 30 minutes. The beads were then washed three times in cold Tris buffer or not washed prior to subjecting to in vitro PTPase assays.

SHP-1 [3] = target: T1, SHP-1; assay: In vitro PTPase assay, recombinant GST/SHP-1; assay type: biochemical
Protocol: (§3) In vitro PTPase activities were measured using the commercial protein tyrosine phosphatase assay kit (Upstate Biotechnology, Inc. (“UBI”)) following established procedure known to one of skill in the art. This assay measures the in vitro dephosphorylation of a synthetic phosphotyrosine peptide of the sequence Arg-Arg-Leu-Ile-Glu-Asp-Ala-Gle-Tyr-Ala-Ala-Arg-Gly, wherein the tyrosine is phosphorylated (SEQ ID NO: 3). Briefly, 0.01 µg of GST/PTPase fusion proteins was incubated in 50 μL of Tris buffer (10 mM Tris, pH 7.4) containing different concentrations of inhibitors or chemicals (0-1,000 μg/ml) at 22° C. for 10 minutes, followed by addition of 0.2 mM of the phosphotyrosine peptide and incubation at 22° C. for 18 hours. 100 μL of Malachite Green solution was added and incubated for 5 minutes, and the absorbance at 660 nm was measured after 5 minutes.
as §2
(§4) In vitro PTPase assays were used to determine the effects of levamisole (Sigma), pentamidine (American Pharmaceutical Partners, Inc.), and ketoconazole (Sigma) on recombinant PTPases, following established procedures (Pathak et al., J. Imumol. 167, 3391 (2001); Pathak et al., Leukemia 16, 2285 (2002), Yi et al., J. Immunol. 169, 5978 (2002)) using a synthetic phosphotyrosine peptide or DiFMUP as the substrate as detailed above in section I.A.2.

MKP1 = target: T3, MKP1 (Homo sapiens, UniProt P28562); assay: In vitro PTPase assay, GST/MKP1; assay type: biochemical
T3 construct: GST (N); made in house; host or cells: DH5a bacteria
T3 sequence (P28562 1-367): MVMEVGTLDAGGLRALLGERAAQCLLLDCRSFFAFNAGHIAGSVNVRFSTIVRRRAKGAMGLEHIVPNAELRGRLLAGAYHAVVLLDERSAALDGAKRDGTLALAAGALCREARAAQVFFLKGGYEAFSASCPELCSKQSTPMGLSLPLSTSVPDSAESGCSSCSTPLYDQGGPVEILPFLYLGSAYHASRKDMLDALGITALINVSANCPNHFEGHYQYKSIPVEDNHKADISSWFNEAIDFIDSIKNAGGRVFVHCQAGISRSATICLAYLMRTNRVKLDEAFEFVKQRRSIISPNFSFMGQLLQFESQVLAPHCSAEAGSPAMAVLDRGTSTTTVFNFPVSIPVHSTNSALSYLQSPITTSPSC
Protocol: as §3, §4

GSTm8 = assay: In vitro PTPase assay, GSTm8; assay type: biochemical; settings: 3-4 μg/ml or 10-100 μg/ml
Excerpt: as §4

Baf3 cells = assay: Baf3 cell proliferation assay; assay type: cell-based, murine
Protocol: The murine hematopoietic cell line Baf3 was maintained in RPMI 1640 medium supplemented with 10% fetal calf serum (FCS) and murine IL-3 (20 units/ml) as described previously in Damen et al., J. Biol. Chem. 270, 23402 (1995). Human myeloid cell line TF-1 was maintained in RPMI 1640 supplemented with 10% FCS and 40 ng/ml of recombinant human GM-CSF as described previously in Thomassen et al., Clin. Immunol. 95, 85 (2000). For cell proliferation assays, cells were washed in 10% FCS medium twice, resuspended in 10% FCS medium, incubated at 37° C. for 16 hours, and then cultured at 37° C. in 10% FCS medium containing various amounts of cytokines, sodium stibogluconate, or potassium antimonyl tartrate for 3-6 days as indicated. The cell numbers in proliferation assays were determined by an MTT assay or by microscopic cell counting as indicated.

PTP1B = target: T4, PTP1B (Homo sapiens, UniProt P18031); assay: In vitro PTPase assay, GST/PTP1B; assay type: biochemical; settings: 1-1,000 μg/ml
T4 construct: GST; purchased Upstate Biotechnology Inc. (Lake Placid, N.Y.)
T4 sequence (P18031 whole entry, species assumed): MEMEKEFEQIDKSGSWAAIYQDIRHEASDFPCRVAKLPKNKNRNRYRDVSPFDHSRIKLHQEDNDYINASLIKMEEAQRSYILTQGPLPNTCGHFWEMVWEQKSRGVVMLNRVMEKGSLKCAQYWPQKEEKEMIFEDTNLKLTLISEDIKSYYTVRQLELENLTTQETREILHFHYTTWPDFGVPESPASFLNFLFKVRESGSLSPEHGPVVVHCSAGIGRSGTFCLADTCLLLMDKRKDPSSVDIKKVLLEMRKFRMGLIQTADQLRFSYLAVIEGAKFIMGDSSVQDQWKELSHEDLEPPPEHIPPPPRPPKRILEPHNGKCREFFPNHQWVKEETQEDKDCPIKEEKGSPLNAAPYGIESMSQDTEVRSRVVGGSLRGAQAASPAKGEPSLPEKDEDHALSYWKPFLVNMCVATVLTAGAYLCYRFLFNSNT
Protocol: as §3, §4

[4] = system: Jak2/Stat5 tyrosine phosphorylation; assay: IL-3-induced Jak2/Stat5 tyrosine phosphorylation in Baf3 cells; assay type: cell-based, murine; settings: potassium antimonyl tartrate
Protocol: For induction of cellular protein phosphorylation by sodium stibogluconate or pervanadate, Baf3 cells were incubated in 0.1% FCS-RPMI 1640 medium at 37° C. for 16 hours. The cells were then washed twice in RPMI 1640 medium and incubated with sodium stibogluconate or pervanandate (0.1 mM) for various times prior to termination by lysing cells in cold lysis buffer (50 mM Tris, pH 7.4; 150 mM NaCl; 0.2 mM Na3VO4; 20 mm NaF; 1% Nonidet P-40; 2 mM PMSF; 20 µg/ml of Aprotinin and 1 mM of sodium molybdic acid). To determine the effect of sodium stibogluconate or potassium antimonyl tartrate on IL-3-induced Jak/Stat phosphorylation, Baf3 cells were deprived of the growth factor for 16 hours in 0.1% FCS RPMI 1640 medium and then incubated with or without sodium stibogluconate or potassium antimonyl tartrate for 10 minutes. IL-3 was next added to the cell suspension and incubated for various times. The Cells were then harvested and lysed in cold lysis buffer at 4° C. for 45 minutes. Total cell lysates (TCL) were separated in SDS-PAGE gels, blotted onto nitrocellulose membrane (Schleicher & Schuell), probed with specific antibodies and detected using an enhanced chemiluminescence kit (ECL, Amersham, Arlington Heights, Ill.).

NB4 cells [5] = assay: NB4 differentiation, NBT reduction; assay type: cell-based, human; settings: comparable conditions
Protocol: as §1

CC1=C(/C=C/C(C)=C/C=C/C(C)=C/C(=O)O)C(C)(C)CCC1 [ATRA, All-trans-retinoic acid]
NBT-positive (differentiated) U937 cells (U937 cells): 72% and 73%
NBT-positive (differentiated) HL-60 cells (HL-60 cells): 90%
NB4 cell cycle effect (NB4 cells [1]): arrested at G1 phase

Cc1ccc(C(=O)Nc2ccc(S(=O)(=O)O)c3cc(S(=O)(=O)O)cc(S(=O)(=O)O)c23)cc1NC(=O)c1cccc(NC(=O)Nc2cccc(C(=O)Nc3cc(C(=O)Nc4ccc(S(=O)(=O)O)c5cc(S(=O)(=O)O)cc(S(=O)(=O)O)c45)ccc3C)c2)c1 [Suramin]
inhibition of GST/SHP-1 after washing (SHP-1 [2]): almost completely removed by the washing process
inhibition of PRL-3 with DiFMUP substrate (PRL-3): less effective than sodium stibogluconate
inhibition of SHP-1 compared with sodium stibogluconate (SHP-1 [3]; under comparable conditions): less effective

c1ccc([C@H]2CN3CCSC3=N2)cc1 [levamisole]
inhibition of MKP1 (MKP1): substantial inhibition
inhibitory activity against GSTm8 (GSTm8): no obvious inhibitory activity
inhibitory activity against SHP-1 (SHP-1 [3]; 3-4 μg/ml or 10-100 μg/ml): no obvious inhibitory activity

O.O.O.O=C([O-])[C@H]([O-])[C@@H]([O-])C(=O)[O-].O=C([O-])[C@H]([O-])[C@@H]([O-])C(=O)[O-].[K+].[K+].[Sb+3].[Sb+3] [potassium antimonyl tartrate]
toxicity against Baf3 cells (Baf3 cells): marked toxicity against Baf3 cells
IL-3-induced proliferation of Baf3 cells (Baf3 cells; IL-3 10 units/ml, three days): failed to enhance
inhibition of PTP1B (PTP1B): no detectable inhibition
IL-3-induced Stat5 phosphorylation [4]: failed to enhance IL-3-induced Stat5 phosphorylation
inhibition of SHP-1 (SHP-1 [3]; 1-1,000 μg/ml): no detectable inhibition

[Na+].[Na+].[Na+].[O]=[V]([O-])([O-])[O-] [sodium orthovanadate]
inhibition of PRL-3 with DiFMUP substrate (PRL-3): less effective than sodium stibogluconate

GM-CSF: recombinant human GM-CSF
NBT-positive (differentiated) U937 cells (U937 cells): 8-10%
effect of GM-CSF on NB4 differentiation (NB4 cells [5]): no detectable effect
NBT-positive (differentiated) HL-60 cells (HL-60 cells): 8-10%
